In publication PMC6179248, “Peanut-specific T cell responses in patients with different clinical reactivity” (PLoS ONE, 2018):

Key:
[1] = tested on: PBMC from peanut allergic and non-allergic donors (IFNγ production); assay: IFNγ ELISPOT with individual peptides after 14-day in vitro expansion (epitope mapping); assay type: cell-based, human; conditions: SFC per 10^6 PBMC, individual peptide 10 μg/ml, 24 h, after 14-day culture; for IFNg Average SFC (controls): non-allergic controls; for IFNg Average SFC (allergics): allergic donors
Procedure: (§1) For in vitro expansions, PBMCs were thawed and cultured in RPMI 1640 (Omega Scientific, Tarzana, CA) supplemented with 5% human AB serum (Gemini Bio-Products, West Sacramento, CA) at a density of 2 × 10^6 cells per mL in 24-well plates (Corning, San Diego, CA) and stimulated with peanut extract (10 μg/ml) or peptide pools at 5 μg/mL. Cells were kept at 37°C, 5% CO2, and additional IL-2 (10 U/mL; ThermoFisher, San Diego, CA) was added every 3 days after initial antigenic stimulation. On day 14, cells were harvested and reactivity against peanut extract (10 μg/ml), peanut specific peptide pools (5 μg/ml) and individual peptides (10 μg/ml) was assessed. The production of IL-5 and IFNγ post-stimulation with peanut extract was analyzed in dual ELISPOT assays. Flat-bottom 96-well nitrocellulose plates (Millipore, Bedford, MA) were prepared according to the manufacturer’s instructions and coated with either 10 μg/ml of both anti-human IL-5 (clone TRFK5) and anti-human IFNγ (clone 1-D1K) or anti-human IL-10 (clone 9D7) and anti-human IL-17 (clone MT44.6) (Mabtech, Cincinnati, OH). PBMC were then incubated at a density of 1 × 10^5/well either with peptide pools (5 μg/ml) or individual peptides (10 μg/ml), peanut extract (10 μg/ml), PHA (10 μg/ml), or medium containing 0.25% DMSO (corresponding to the highest percentage of DMSO in the pools/peptides condition) as a control. After 24 h, cells were removed, and plates were incubated with a cocktail containing either biotinylated anti-human IL-5 (1:50 dilution) (clone 5A10) and horseradish peroxidase (HRP)-conjugated anti-human IFNγ (1:200 dilution) (clone 7-B6-1) or biotinylated anti-human IL-17 (1:200 dilution) (clone MT504) anti-human alkaline phosphatase (AP)-conjugated IL-10 (1:200 dilution) (clone 12G8) (Mabtech, Cincinnati, OH) at 37°C. After 2 h, spots corresponding to the biotinylated IL-5 Ab were developed by incubation with Alkaline-phosphatase-Complex (Vector Laboratories, Burlingame, CA) and then visualized by applying the Vector Blue Alkaline Phosphatase Substrate Kit III (Vector Laboratories, Burlingame, CA) according to the manufacturer’s instructions. Spots corresponding to the HRP-conjugated anti-human IFNγ Ab were visualized by incubation with 3-amino-9-ethylcarvazole solution (Sigma-Aldrich, St. Louis, MO). Spots were counted by computer-assisted image analysis (KS-ELISPOT reader, Zeiss, Munich). Each assay was performed in triplicate. The level of statistical significance was determined with a Student t test using the mean of triplicate values of the response against relevant pools or individual peptides versus the response against the DMSO control. Criteria for response positivity were 20 spot-forming cells (SFCs)/10^6 PBMC, p ≤ 0.05, and a stimulation index (SI) ≥ 2. SFCs are measured per 10^5 PBMC, subsequently readings are background subtracted and multiplied by 10 to be expressed as SFC per million PBMC. T cell epitope mapping was performed to determine epitopes from the major peanut allergens Ara h 1, 2 and 3, recognized by peanut allergic (n = 11) and non-allergic (n = 10) donors. As these studies were performed with samples obtained from pediatric patients, available blood sample volumes were limiting. To overcome this limitation, small pools of predicted peptides matched to the HLA molecules expressed in each donor were tested. For each donor, class II binding affinity predictions were performed using algorithms available through the IEDB (www.iedb.org)[18], to identify the top 6 predicted binders for each of the alleles expressed at the four HLA class II loci (DRB1, DRB3/4/5, DQB1, and DPB1). Accordingly, the screening load for each donor was reduced from 400 peptides to a maximum of 48 peptides (6 peptides x ≤8 class II molecules, less for homozygous donors). The six top predicted peptides for each allele were used to generate allele-specific pools, which were in turn used to expand peanut-specific cells in vitro. […]

[2] = tested on: PBMC from peanut allergic and non-allergic donors (IL-5 production); assay: IL-5 ELISPOT with individual peptides after 14-day in vitro expansion (epitope mapping); assay type: cell-based, human; conditions: SFC per 10^6 PBMC, individual peptide 10 μg/ml, 24 h, after 14-day culture; for IL-5 Average SFC (controls): non-allergic controls; for IL-5 Average SFC (allergics): allergic donors
Procedure: as §1

Sequence	IFNg Average SFC (controls) [1]	IL-5 Average SFC (controls) [2]	IFNg Average SFC (allergics) [1]	IL-5 Average SFC (allergics) [2]
QEFECAGVALSRLVL [Ara h 3 15-mer, position 61]	0 SFC	138 SFC		
RSSENNEGVIVEVSK [Ara h 1 15-mer, position 356]	0 SFC	40 SFC		
EQGAIVTVRGGLRIL [Ara h 3 15-mer, position 296]	252 SFC	205 SFC	142 SFC	78 SFC
QGRGYFGLIFPGCPS [Ara h 3 15-mer, position 96]	0 SFC	43 SFC	0 SFC	0 SFC
PHFNSKAMVIVVINK [Ara h 1 15-mer, position 446]	58 SFC	0 SFC	15 SFC	41 SFC
HVQVVDSNGNRVYDE [Ara h 3 15-mer, position 406; P19 pool member]	240 SFC	0 SFC	0 SFC	385 SFC
QSDNFEYVAFKTDSR [Ara h 3 15-mer, position 466; P19 pool member]	373 SFC	123 SFC	0 SFC	164 SFC
RNNPFYFPSRRFSTR [Ara h 1 15-mer, position 171]			0 SFC	100 SFC
KAMVIVVVNKGTGNL [Ara h 1 15-mer, position 451]	28 SFC	0 SFC	42 SFC	108 SFC
VTVKGGLRILSPDEE [Ara h 3 15-mer, position 276]	433 SFC	653 SFC		
RRFYLAGNQEQEFLR [Ara h 3 15-mer, position 196]	90 SFC	750 SFC	0 SFC	0 SFC
GSNIFSGFAQEFLQH [Ara h 3 15-mer, position 237]	0 SFC	29 SFC		
FQNLQNHRIVQIEAR [Ara h 1 15-mer, position 206]	0 SFC	0 SFC	13 SFC	64 SFC
QEFQCAGVALSRTVL [Ara h 3 15-mer, position 61]	34 SFC	98 SFC		
AGVALSRLVLRRNAL [Ara h 3 15-mer, position 66]	603 SFC	753 SFC		
CMCEALQQIMENQSD [Ara h 2 15-mer, position 116]	0 SFC	59 SFC		
LLGILVLASVSATHA [Ara h 1 15-mer, position 11]	80 SFC	0 SFC		
NNRKSFNLDEGHALR [Ara h 1 15-mer, position 251]	55 SFC	82 SFC		
MAKLLALSLCFCVLV [Ara h 3 15-mer, position 1]	9 SFC	25 SFC	0 SFC	0 SFC
SGFTPEFLAQAFQVD [Ara h 3 15-mer, position 266; P19 pool member]	81 SFC	240 SFC	0 SFC	394 SFC
NELNLLILRWLGLSA [Ara h 3 15-mer, position 386]	0 SFC	607 SFC	0 SFC	0 SFC
